From patent publication US20190210973A1, “COMPOUNDS AND METHODS FOR TREATMENT OF CYSTIC FIBROSIS” (The Curators of the University of Missouri, priority 2018, published 2019) come the findings set out here.

“And” between values parts separate entries of the source, which are not always exact repeats. Equal values may be shown once. “Also recorded” adds a separate entry of the source.

Holding throughout (format): cell-based
Experiment [1] has as its target T1, G551D-CFTR (Homo sapiens, UniProt P13569, G551D).
T1 construct: The cDNA constructs of CFTR (G551D and delF508) were co-transfected with peGFP-C3; expressed in transfected cells; host or cells: CHO cells (ATCC), transient co-transfection with pEGFP-C3 (GFP as a separate marker, not fused)
Nature of the experiment: Patch-clamp recording of G551D-CFTR currents in excised inside-out patches of transfected CHO cells. The conditions noted are these: for fold increase of G551D-CFTR currents (ILZH+ATP/IATP): single application. The text has this:
(§1) Patch-clamp is considered the gold standard for assessing directly ion channel function in real time. By attaching a glass microelectrode on the surface of a cell, it is possible to record the currents generated by channels proteins that are present in this tiny “patch” of cell membranes. Since millions of ions pass through a single ion channel pore per second, the resulting microscopic currents from a single channel protein molecule can be detected with modem patch-clamp amplifiers. As ion channels (a conductor in electricity term) are arranged in parallel in the cell membrane, it is also possible to assay a group of ion channels by monitoring macroscopic currents representing the sum of currents from individual channels. Microscopic recordings allow artisans to examine exquisitely the effects of compounds on the Po and kinetic parameters of CFTR channels; whereas macroscopic recordings provide an assay not only to quantify the overall effects of compounds on N×Po×i, but also monitor the stability of the CFTR currents in real time.
(§2) Chinese hamster ovary (CHO) cells were grown at 37° C. in Dulbecco's modified Eagle's medium supplemented with 10% fetal bovine serum. Cells were subcultured into 35-mm tissue culture dishes 1 day before transfection. PolyFect transfection reagent (QIAGEN) was used to cotransfect CFTR cDNA and pEGFP-C3 (Takara Bio Inc.), which encodes green fluorescence proteins, into CHO cells. After transfection, cells were incubated at 27° C. for at least 2 days before electrophysiological experiments were performed.
(§3) Glass chips carrying the transfected cells were transferred to a chamber located on the stage of an inverted microscope (IX51; Olympus). Borosilicate capillary glasses were used to make patch pipettes using a two-stage micropipette puller (PP-81, Narishige, Japan). The pipettes were polished with a homemade microforge to a resistance of 2-4 MΩ in the bath solution. Once the seal resistance reached >40 GΩ, membrane patches were excised into an inside-out mode. Subsequently, the pipette was moved to the outlet of a three-barrel perfusion system and perfused with 25 IU PKA and 2 mM ATP until the CFTR current reached a steady state. A patch-clamp amplifier (EPC10, HEKA, Germany) was used to record electrophysiological data at room temperature. The data were filtered online at 100 Hz with an eight-pole Bessel filter (LPF-8; Warner Instruments) and digitized to a computer at a sampling rate of 500 Hz. […] Membrane potential was held at −30 or −50 mV for all recordings.
(§4) Disease-causing mutations (G551D and delF508) were made with PCR-based site-directed mutagenesis using the Pfu Ultra II (Agilent Technologies). […] The cDNA constructs of CFTR (G551D and delF508) were co-transfected with peGFP-C3 (Takara Bio Inc.) encoding the green fluorescent protein into CHO cells using PolyFect transfection reagent (QIAGEN). The transfected cells were transferred into 35 mm tissue culture dishes containing one layer of sterilized glass chips for cells to grow on. The transfected cells were incubated at 27° C. for 2-7 days before electrophysiological experiments were performed.
(§5) All patch-clamp experiments were carried out in the excised inside-out configuration. Micropipettes made of borosilicate capillary glass were pulled with a two-stage vertical puller (Narishige) and then fire-polished with a homemade microforge to reach a pipet resistance of 2-4 MΩ when the pipettes were filled with a standard inside-out pipet solution that contains: 140 mM N-Methyl-D-glucamine-Cl (NMDG-Cl), 2 mM MgCl2, 5 mM CaCl2) and 10 mM HEPES, adjusted to pH 7.4 with NMDG.
(The patch-clamp technique gives a direct electrical read-out from membranes.)

Experiment [2] addresses T2, delF508-CFTR (Homo sapiens, UniProt P13569, DEL508-508). Nature of the experiment: Patch-clamp recording of delF508-CFTR currents in excised inside-out patches of transfected CHO cells.
Text: as §1, §2, §3, §4, §5

In experiment [3] the target is T2, delF508-CFTR. The experiment in a line: Western blot of delF508-CFTR membrane (surface) expression, Band C. Further details: delF508 stably-transfected C127 cells were cultured in DMEM with 10% FBS in 6-well plates; expressed in transfected cells; host or cells: C127 cells stably expressing delF508-CFTR. The note with it: for surface expression of delF508-CFTR (Band C, corrected to vimentin, DMSO = 100): C127 cells. The text has this:
The amount of CFTR proteins in the cell membrane can be determined with Western blot analysis. Like all membrane proteins in the cell, the CFTR protein is synthesized in the endoplasmic reticulum (ER), translocated to the Golgi apparatus for glycosylation before trafficked to the plasma membrane. Because of the addition of complex sugar molecules to CFTR, the molecular weight of “mature” or post-Golgi CFTR in the plasma membrane is higher than that of newly synthesized proteins in the ER. Thus, in Western blot, it is possible to discern two distinct bands: band C representing high molecular weight, mature CFTR, and band B low molecular weight, immature CFTR. While wild-type proteins are present mostly as band C, Class II disease-associated mutations such as delF508 causes a drastic diminution of band C, resulting in an effective decrease of N in the formula N×Po×i. The effects of the reagents (or CFTR correctors) that enhance band C can thus be quantitatively assessed with the Western blot analysis. By the same token, any interactions between different compounds, with positive or negative impact on band C, can be determined with this assay.
Western blot experiments were carried out in both transient expression system (CHO cells) and a stable cell line (C127 cells). CHO cells, grown in 35 mm dishes, were transfected with delF508-CFTR construct in pcDNA plasmids using X-tremeGENE (Roche). Six hours after transfection, tested compounds were added to the medium. In case of delF508-CFTR-expressing stable C127 cells, compounds were added to the medium at about 30% confluence. In both cases, cells were lysed 18 hours post drug treatment using 1×SDS loading buffer. Cell lysates were sheared by pushed through 18G needles. Whole cell lysate were separated in 4˜20% gradient gels (Bio-Rad Laboratories) and transferred onto nitrocellulose membranes. The membranes were blocked with 5% milk in TBST buffer (20 mM Tris, 137 mM NaCl, 0.1% Tween 20) at 4° C. overnight. The membranes were then probed with anti-CFTR antibody (AB596 from the Cystic Fibrosis Foundation) and anti-vimentin antibody as a control (Santa Cruz Biotechnology) at room temperature for two hours. The membranes were washed with TBST five times and then incubated with anti-mouse IgG, HRP-linked antibody (Cell Signaling Technology) at room temperature for one hour. The membranes were washed three times with TBST and developed with chemiluminescence reagent (Thermo Scientific). The luminescence was detected and quantified by a Molecular Image Chemi Doc (Bio-Rad Laboratories).
For Western blotting experiments, delF508 stably-transfected C127 cells were cultured in DMEM with 10% FBS in 6-well plates. Different tested compounds were added to the culture medium within 24 hours of passage to the desired concentration. Cells were lysed 18 hours post drug treatment using 1×SDS loading buffer. Cell lysates were sheared by pushed through 18G needles. Whole cell lysates were separated in 4-20% gradient gels (Bio-Rad Laboratories) and transferred onto nitrocellulose membranes. The membranes were blocked with 5% milk in TBST buffer (20 mM Tris, 137 mM NaCl, 0.1% Tween 20) at 4° C. overnight. The membranes were then probed with anti-CFTR antibody (AB660 from CFTR foundation) and anti-vimentin antibody as a loading control (Santa Cruz Biotechnology) at room temperature for two hours. The membranes were washed with TBST five times and then incubated with anti-mouse IgG, HRP linked antibody (Cell Signaling Technology) at room temperature for one hour. The membranes were washed three times with TBST and developed with chemiluminescence reagent (Thermo Scientific). The luminescence was detected by a Molecular Image Chemi Doc (Bio-Rad Laboratories). […]
(In general: In western blotting, separated proteins are transferred to a membrane and probed.)

T2 sequence (P13569 with tags, fused parts or gaps DEL508-508): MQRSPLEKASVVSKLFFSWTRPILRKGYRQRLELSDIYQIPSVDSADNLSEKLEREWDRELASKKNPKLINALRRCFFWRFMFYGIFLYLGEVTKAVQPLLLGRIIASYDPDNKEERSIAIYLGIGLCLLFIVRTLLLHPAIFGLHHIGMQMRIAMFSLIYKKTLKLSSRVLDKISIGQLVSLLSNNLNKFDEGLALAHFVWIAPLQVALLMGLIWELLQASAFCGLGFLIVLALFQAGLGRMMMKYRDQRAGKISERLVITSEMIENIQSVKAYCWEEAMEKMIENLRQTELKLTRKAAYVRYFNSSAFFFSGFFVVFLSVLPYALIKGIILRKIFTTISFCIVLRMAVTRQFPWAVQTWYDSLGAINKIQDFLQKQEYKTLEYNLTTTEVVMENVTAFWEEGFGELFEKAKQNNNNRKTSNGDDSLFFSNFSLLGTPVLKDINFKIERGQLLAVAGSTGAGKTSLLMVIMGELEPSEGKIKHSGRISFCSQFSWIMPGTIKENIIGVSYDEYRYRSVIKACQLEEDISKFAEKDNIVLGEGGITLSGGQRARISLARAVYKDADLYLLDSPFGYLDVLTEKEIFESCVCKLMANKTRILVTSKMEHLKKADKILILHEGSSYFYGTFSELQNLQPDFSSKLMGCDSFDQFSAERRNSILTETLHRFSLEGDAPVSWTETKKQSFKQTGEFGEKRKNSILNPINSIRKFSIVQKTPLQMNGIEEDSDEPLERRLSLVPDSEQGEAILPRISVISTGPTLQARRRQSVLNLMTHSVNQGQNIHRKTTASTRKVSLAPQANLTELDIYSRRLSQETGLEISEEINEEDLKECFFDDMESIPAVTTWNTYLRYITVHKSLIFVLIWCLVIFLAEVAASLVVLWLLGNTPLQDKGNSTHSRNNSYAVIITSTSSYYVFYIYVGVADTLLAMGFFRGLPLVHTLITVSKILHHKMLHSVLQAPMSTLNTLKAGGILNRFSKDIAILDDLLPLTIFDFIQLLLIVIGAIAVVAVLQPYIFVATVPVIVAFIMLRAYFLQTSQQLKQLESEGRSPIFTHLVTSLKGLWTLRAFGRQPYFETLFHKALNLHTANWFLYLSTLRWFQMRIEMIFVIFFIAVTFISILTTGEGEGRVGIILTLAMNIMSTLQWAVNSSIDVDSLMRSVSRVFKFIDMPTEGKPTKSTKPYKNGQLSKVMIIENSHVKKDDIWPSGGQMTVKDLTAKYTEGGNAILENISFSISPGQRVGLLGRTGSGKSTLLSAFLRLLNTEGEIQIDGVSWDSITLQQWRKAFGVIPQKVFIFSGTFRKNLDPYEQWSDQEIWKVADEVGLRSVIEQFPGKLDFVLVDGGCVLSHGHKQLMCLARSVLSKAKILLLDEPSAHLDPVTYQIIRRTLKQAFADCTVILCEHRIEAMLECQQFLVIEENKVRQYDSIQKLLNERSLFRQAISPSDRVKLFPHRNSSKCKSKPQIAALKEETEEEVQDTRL
T1 sequence (P13569 whole entry G551D, the tested form may be a part): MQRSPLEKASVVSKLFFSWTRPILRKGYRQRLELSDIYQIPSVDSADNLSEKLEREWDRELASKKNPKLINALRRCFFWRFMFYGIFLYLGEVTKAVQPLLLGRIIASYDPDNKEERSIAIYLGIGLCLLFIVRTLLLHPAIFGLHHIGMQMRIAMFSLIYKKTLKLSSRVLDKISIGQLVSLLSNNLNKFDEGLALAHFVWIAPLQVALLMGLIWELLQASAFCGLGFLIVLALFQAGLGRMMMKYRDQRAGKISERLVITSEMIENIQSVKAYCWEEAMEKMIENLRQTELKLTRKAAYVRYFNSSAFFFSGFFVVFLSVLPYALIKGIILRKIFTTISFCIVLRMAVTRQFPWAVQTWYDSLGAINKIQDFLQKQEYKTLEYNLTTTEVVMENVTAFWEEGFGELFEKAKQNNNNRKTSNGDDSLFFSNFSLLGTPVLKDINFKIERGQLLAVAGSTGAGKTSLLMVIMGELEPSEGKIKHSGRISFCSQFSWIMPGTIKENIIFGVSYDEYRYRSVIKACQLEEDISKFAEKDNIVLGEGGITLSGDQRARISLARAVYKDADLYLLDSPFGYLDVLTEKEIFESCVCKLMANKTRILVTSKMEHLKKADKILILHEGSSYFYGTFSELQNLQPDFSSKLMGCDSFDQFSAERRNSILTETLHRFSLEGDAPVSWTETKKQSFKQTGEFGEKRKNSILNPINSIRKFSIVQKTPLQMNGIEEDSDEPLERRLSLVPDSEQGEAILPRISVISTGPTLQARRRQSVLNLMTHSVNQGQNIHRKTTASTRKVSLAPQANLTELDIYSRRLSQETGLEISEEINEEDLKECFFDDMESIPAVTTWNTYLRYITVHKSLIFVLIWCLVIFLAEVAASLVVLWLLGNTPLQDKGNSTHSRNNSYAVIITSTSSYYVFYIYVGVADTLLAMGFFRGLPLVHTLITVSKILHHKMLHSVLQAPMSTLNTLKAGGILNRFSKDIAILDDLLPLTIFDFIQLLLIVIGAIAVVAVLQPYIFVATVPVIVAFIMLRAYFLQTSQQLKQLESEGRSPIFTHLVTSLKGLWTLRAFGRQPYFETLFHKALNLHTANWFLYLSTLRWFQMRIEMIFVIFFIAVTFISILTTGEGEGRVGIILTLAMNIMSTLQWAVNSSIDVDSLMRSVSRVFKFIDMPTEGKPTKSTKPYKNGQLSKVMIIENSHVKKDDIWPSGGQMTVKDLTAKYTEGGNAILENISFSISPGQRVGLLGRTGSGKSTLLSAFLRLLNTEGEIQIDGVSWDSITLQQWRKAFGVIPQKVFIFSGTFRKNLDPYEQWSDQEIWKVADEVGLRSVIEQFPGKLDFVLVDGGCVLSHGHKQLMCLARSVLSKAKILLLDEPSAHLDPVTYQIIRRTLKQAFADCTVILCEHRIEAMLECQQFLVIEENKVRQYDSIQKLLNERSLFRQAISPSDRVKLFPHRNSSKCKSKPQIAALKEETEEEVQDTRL

For the molecule `CNCCCCCCOc1ccc(-c2nn(C)c3cc(Br)ccc23)c(F)c1` [LZH-00015, 6-(4-(6-bromo-1-methyl-1H-indazol-3-yl)-3-fluorophenoxy)-N-methylhexan-1-amine], the “fold increase of G551D-CFTR currents (ILZH+ATP+VX-770/IATP)” value in experiment [1] (combined application with VX-770, 0.2 μM LZH compound) was 5.8 ± 0.9, N = 5 fold; in experiment [1] (combined application with VX-770, 1 μM LZH compound), 16.7 ± 10.6, fold; in experiment [1] (combined application with VX-770, 5 μM LZH compound), 42.5 ± 10.0, N = 5 fold. The “effect on G551D-CFTR currents in the presence of VX-770” value in experiment [1] (in the presence of Ivacaftor (VX-770)) was “significant synergism with VX-770; also recorded: further increased the current”. Further, the “fold increase of G551D-CFTR currents (ILZH+ATP/IATP)” value was 1.0 ± 0.7, N = 3 fold in experiment [1] (1 μM); 4.5 ± 0.5, N = 3 fold in experiment [1] (5 μM); 3.3 ± 0.8, N = 3 fold in experiment [1] (20 μM). In addition, the “rundown of delF508-CFTR current, compound added in the continuous presence of Ivacaftor” value in experiment [2] (FIG. 10) was “stops the rundown process and stabilizes the current”. The “fold increase of delF508-CFTR currents (ILZH+ATP+VX-770/IATP)” value in experiment [2] (combined application with VX-770 (200 nM), 2.5 μM LZH compound) is 15 fold and 15.9 ± 1.0, N = 3 fold; in experiment [2] (combined application with VX-770, 0.5 μM LZH compound), 5.9 ± 1.3, N = 3 fold. In addition, the “rundown of delF508-CFTR current in the presence of the compound” value in experiment [2] (real-time current trace, FIG. 10) is reported as “virtually no rundown of the current”. Besides, in experiment [2] (single application, 5 μM), the “fold increase of delF508-CFTR currents (ILZH+ATP/IATP)” value is 3.4±0.4 fold and 3.4 ± 0.4, N = 7 fold. Further, the “surface expression of delF508-CFTR (Band C, corrected to vimentin, DMSO = 100)” value in experiment [3] (3 μM VX-809 + 0.1 μM LZH compound, lane 5) is 395 ± 99, N = 4; in experiment [3] (3 μM VX-809 + 0.5 μM LZH compound, lane 4), 347 ± 106, N = 4; in experiment [3] (3 μM VX-809 + 5 μM LZH compound, lane 3) it was 356 ± 98, N = 4. For the same molecule, the “influence on the effect of Lumacaftor (VX-809) on membrane expression of delF508-CFTR (words)” value in experiment [3] (added to 3 μM VX-809) is recorded as “further enhanced; also recorded: retains or even enhances the effect of Lumacaftor”.
